Here are results for seven compounds from patent US20230286970A1, “NOVEL OXADIAZOLE-BASED SELECTIVE HDAC6 INHIBITORS” (ITALFARMACO S.P.A., priority 2020, published 2023).

The nature of series [1]: Stability in rat plasma. As to conditions: after 4 hours, 37° C.
Experimental: (§2) In order to evaluate the stability to circulating enzymes, test compounds were incubated in human and rat plasma at 37° C. in a thermostated oscillating bath. Each test compound was incubated at μM concentration (50 μM when the samples were analysed by UV/HPLC, 1 or 2 μM when the samples were analysed by LC-MS/MS) for 0, 15, 30 minutes and 1, 2 and 4 hours. The reaction was stopped placing samples on ice bath and adding acidified acetonitrile. After centrifugation (10 minutes at 14000 rpm) an aliquot of the supernatant was diluted with water, filtered with 0.45 μm regenerated cellulose syringe filters and injected in HPLC-UV or in LC-MS/MS. The percentage of the remaining amount at the various incubation times with respect to the initial amount were calculated. The half-life in plasma was also calculated.
Series [2] deals with HDAC11 (Homo sapiens (Human), UniProt Q96DB2). As to the kind of experiment: Enzymatic screening, HDAC11 inhibition. The class given is biochemical. The protocol:
(§1) For each test compound, 100× concentrated DMSO solutions at 8 doses were prepared and then diluted in assay buffer (25 mM Tris-HCl, pH 8, 130 mM NaCl, 0.05% Tween-20, 10% Glycerol) to obtain 5× concentrated solutions in relation to the final concentrations (typical final concentration range—6.4-200000 nM or 0.18-50000 nM, final DMSO content—1%). Then 10 μL solution of each test compound concentration were placed on a 96-well plate in triplicate and 15 μL of 3.33× concentrated enzyme solution in the assay buffer containing 3.33× concentrated BSA (final BSA concentration—2 mg/mL for HDAC4, HDAC5 and HDAC9 or 1 mg/mL for other isoforms) and in the case of HDAC6-3.33× concentrated TCEP (final TCEP concentration—200 μM) were added to each well. After a period of preincubation (incubation times and temperatures vary for different isoforms and are shown in table 1) 25 μL of solution containing the substrate were added. As substrate, FLUOR DE LYS® deacetylase substrate (Enzo Life Sciences, cat: BML-KI104, FdL), FLUOR DE LYS®-Green substrate (Enzo Life Sciences, cat: BML-KI572, FdL_G) or Boc-Lys(Tfa)-AMC (Bachem, cat: 4060676.005, Tfal)—2× concentrated solution in assay buffer were used. Following a reaction period (reaction times and temperatures vary for different isoforms and are reported in Table 1), 50 μL of the development solution consisting of concentrate FLUOR DE LYS® developer I (Enzo Life Sciences, ca: BML-KI105), diluted 200 times in buffer (50 mM Tris-HCl, pH 8, 137 mM NaCl, 2.7 mM KCl, 1 mM MgCl2) plus 2 μM TSA was added and, after 25 minutes at room temperature in the dark, using the Victor 1420 Multilabel Counter Perkin Elmer Wallac instrument, the fluorescence reading was carried out.

Series [3] addresses HDAC9 (Homo sapiens (Human), UniProt Q9UKV0). Nature of the series: Enzymatic screening, HDAC9 inhibition. The class given is biochemical. The protocol:
as §1

Series [4] addresses HDAC2 (Homo sapiens (Human), UniProt Q92769). Nature of the series: Enzymatic screening, HDAC2 inhibition. The class given is biochemical. The protocol:
as §1

The target in series [5] is recombinant human HDAC1 (Homo sapiens (Human), UniProt Q13547). Nature of the series: Enzymatic screening, HDAC1 inhibition (fluorogenic FdL_G substrate). The class given is biochemical. An outline of the steps:
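Recombinant human HDAC1 inhibition was measured fluorometrically using the FLUOR DE LYS-Green (FdL_G) substrate. Compounds at 8 doses (1% DMSO final) in Tris-HCl pH 8 buffer with NaCl, Tween-20 and glycerol were preincubated in triplicate with enzyme and 1 mg/mL BSA, then given substrate. Developer I plus 2 μM TSA was added, and fluorescence read after 25 minutes in the dark.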

The nature of series [6]: Stability to Phase I metabolism in rat S9 liver fraction. The conditions noted are these: after 90 minutes, 37° C.
Series [7] is described as follows: Stability in human plasma. The conditions noted are these: after 4 hours, 37° C.
Experimental: as §2
Series [8] deals with HDAC4 (Homo sapiens (Human), UniProt P56524). Nature of the series: Enzymatic screening, HDAC4 inhibition. The class given is biochemical. The protocol: as §1
Series [9] can be described thus: Stability to Phase I metabolism in human S9 liver fraction. The conditions noted are these: after 90 minutes, 37° C.
Series [10] concerns the target HDAC10 (Homo sapiens (Human), UniProt Q969S8). Nature of the series: Enzymatic screening, HDAC10 inhibition. The class given is biochemical. As for the experimental part: as §1
The target of series [11] is HDAC3 (Homo sapiens (Human), UniProt O15379). Nature of the series: Enzymatic screening, HDAC3 inhibition. The class given is biochemical. As for the experimental part:
as §1

The target of series [12] is recombinant human HDAC6 (Homo sapiens (Human), UniProt Q9UBN7). Nature of the series: Enzymatic screening, HDAC6 inhibition (fluorogenic FdL_G substrate). The class given is biochemical. In a few lines: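 Enzyme was preincubated with compound (8 doses, triplicate, 1% DMSO) in 25 mM Tris-HCl pH 8, 130 mM NaCl, 0.05% Tween-20, 10% glycerol, with BSA. A FLUOR DE LYS-Green substrate was then added, and fluorescence was read after developer plus 2 μM TSA.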

Series [13] addresses HDAC7 (Homo sapiens (Human), UniProt Q8WUI4). Nature of the series: Enzymatic screening, HDAC7 inhibition. The class given is biochemical. As for the experimental part:
as §1

The target of series [14] is HDAC5 (Homo sapiens (Human), UniProt Q9UQL6). Nature of the series: Enzymatic screening, HDAC5 inhibition. The class given is biochemical. The protocol: as §1
In series [15] the test system is α-tubulin acetylation in 697 cell line. Nature of the series: In vitro α-tubulin acetylation in 697 cell line (ELISA). The class given is cell-based. The conditions noted are these: 16 hours, read-out: fold increase @ 1 uM TubAc (ratio of acetylated tubulin and total tubulin towards control). An outline of the steps: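 B 697 cells in RPMI 10% FCS were treated for 16 h at 37 °C with compound at 1000, 333, 111 or 37 nM. Lysate (0.3 μg protein) was coated and probed by ELISA for acetylated and total α-tubulin, read at 450 nm. The acetylated/total ratio is given as fold over untreated control.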
A general note: ELISA stands for enzyme-linked immunosorbent assay.

Series [16] deals with HDAC8 (Homo sapiens (Human), UniProt Q9BY41). Nature of the series: Enzymatic screening, HDAC8 inhibition. The class given is biochemical. The protocol: as §1

pIC50: −log10 of the molar value.

Chain of HDAC4 (P56524 whole entry): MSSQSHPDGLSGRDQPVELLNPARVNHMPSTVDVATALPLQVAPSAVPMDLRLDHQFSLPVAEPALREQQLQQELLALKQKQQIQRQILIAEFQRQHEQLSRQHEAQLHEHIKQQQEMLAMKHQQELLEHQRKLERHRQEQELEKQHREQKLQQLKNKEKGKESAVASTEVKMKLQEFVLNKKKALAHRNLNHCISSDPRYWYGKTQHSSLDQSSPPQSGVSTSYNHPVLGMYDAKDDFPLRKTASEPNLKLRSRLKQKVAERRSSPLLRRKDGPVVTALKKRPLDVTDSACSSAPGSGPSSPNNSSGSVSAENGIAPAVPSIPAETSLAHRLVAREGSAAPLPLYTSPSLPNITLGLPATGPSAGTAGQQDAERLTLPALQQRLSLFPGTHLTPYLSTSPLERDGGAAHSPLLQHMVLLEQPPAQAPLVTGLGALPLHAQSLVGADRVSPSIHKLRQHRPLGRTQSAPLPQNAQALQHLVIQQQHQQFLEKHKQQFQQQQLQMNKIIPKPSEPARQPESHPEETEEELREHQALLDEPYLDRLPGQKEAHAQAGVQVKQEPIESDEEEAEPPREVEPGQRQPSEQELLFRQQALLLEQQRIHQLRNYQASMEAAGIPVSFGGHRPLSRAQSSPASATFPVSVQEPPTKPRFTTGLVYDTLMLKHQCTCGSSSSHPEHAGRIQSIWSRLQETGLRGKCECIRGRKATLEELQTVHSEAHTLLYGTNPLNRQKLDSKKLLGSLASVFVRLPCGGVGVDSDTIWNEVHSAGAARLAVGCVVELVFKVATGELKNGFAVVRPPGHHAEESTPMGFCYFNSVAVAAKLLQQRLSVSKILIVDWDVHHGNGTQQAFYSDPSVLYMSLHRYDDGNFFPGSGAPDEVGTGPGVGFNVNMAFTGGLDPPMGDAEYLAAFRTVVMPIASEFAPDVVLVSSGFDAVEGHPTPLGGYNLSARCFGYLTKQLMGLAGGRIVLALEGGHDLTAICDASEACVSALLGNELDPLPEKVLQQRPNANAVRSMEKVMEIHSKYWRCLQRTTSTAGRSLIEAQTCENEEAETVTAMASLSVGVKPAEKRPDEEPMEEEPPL
Chain of recombinant human HDAC6 (Q9UBN7 whole entry): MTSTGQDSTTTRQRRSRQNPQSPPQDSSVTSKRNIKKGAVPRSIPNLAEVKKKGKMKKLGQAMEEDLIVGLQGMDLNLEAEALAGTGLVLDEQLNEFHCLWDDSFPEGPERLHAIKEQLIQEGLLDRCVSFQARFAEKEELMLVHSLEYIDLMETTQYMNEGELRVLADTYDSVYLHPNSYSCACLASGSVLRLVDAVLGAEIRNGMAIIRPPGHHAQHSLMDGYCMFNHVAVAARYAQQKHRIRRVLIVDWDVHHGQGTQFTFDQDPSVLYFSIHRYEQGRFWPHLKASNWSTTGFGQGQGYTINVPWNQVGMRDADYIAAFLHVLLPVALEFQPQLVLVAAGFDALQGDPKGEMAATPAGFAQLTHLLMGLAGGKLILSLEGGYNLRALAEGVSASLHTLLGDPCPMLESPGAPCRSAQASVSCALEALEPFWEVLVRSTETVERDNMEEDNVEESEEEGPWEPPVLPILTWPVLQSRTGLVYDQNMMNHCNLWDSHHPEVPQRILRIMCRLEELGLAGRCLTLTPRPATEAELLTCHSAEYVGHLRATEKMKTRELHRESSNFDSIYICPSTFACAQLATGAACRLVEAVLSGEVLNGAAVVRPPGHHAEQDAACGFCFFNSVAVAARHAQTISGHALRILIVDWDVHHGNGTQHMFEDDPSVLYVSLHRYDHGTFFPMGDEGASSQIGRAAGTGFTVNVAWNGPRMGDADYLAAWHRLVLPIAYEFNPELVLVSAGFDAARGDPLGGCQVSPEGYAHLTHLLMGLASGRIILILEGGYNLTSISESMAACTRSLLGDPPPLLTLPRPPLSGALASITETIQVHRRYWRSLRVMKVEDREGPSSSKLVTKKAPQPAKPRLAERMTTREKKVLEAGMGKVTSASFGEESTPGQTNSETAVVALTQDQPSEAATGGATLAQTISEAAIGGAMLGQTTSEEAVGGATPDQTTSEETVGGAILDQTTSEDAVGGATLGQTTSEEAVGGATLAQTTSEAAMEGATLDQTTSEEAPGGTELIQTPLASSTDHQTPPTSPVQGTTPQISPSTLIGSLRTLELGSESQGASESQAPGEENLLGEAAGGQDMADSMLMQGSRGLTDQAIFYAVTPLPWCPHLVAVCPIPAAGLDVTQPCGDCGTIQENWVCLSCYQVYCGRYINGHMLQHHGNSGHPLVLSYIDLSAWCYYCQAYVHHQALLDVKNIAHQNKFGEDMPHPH
Chain of HDAC9 (Q9UKV0 whole entry): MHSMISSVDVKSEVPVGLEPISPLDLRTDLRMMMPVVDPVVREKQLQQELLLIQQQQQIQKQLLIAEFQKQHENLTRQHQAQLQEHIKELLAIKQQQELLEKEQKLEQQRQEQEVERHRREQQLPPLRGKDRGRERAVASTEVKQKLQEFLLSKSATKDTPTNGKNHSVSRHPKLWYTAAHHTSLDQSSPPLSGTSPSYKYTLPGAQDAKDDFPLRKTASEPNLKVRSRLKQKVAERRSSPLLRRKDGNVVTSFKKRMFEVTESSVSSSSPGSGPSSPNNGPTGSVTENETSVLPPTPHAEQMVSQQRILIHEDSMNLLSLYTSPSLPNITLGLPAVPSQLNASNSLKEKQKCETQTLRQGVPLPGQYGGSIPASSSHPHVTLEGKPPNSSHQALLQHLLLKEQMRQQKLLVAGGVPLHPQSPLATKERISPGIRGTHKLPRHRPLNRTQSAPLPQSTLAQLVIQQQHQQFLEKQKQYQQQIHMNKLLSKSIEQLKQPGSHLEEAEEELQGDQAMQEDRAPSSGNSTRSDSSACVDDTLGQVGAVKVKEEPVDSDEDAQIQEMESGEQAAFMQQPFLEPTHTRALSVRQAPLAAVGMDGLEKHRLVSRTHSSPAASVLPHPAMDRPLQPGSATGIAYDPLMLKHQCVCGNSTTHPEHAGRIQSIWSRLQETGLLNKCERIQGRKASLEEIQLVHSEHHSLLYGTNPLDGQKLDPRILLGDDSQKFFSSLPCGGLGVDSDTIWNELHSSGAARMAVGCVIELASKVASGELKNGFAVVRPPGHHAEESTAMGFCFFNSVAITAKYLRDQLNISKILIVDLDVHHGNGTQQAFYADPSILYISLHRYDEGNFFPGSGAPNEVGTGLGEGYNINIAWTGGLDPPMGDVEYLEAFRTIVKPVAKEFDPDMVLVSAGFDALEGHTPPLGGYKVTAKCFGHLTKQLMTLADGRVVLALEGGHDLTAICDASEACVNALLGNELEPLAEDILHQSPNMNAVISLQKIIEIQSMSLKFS
Chain of HDAC5 (Q9UQL6 whole entry): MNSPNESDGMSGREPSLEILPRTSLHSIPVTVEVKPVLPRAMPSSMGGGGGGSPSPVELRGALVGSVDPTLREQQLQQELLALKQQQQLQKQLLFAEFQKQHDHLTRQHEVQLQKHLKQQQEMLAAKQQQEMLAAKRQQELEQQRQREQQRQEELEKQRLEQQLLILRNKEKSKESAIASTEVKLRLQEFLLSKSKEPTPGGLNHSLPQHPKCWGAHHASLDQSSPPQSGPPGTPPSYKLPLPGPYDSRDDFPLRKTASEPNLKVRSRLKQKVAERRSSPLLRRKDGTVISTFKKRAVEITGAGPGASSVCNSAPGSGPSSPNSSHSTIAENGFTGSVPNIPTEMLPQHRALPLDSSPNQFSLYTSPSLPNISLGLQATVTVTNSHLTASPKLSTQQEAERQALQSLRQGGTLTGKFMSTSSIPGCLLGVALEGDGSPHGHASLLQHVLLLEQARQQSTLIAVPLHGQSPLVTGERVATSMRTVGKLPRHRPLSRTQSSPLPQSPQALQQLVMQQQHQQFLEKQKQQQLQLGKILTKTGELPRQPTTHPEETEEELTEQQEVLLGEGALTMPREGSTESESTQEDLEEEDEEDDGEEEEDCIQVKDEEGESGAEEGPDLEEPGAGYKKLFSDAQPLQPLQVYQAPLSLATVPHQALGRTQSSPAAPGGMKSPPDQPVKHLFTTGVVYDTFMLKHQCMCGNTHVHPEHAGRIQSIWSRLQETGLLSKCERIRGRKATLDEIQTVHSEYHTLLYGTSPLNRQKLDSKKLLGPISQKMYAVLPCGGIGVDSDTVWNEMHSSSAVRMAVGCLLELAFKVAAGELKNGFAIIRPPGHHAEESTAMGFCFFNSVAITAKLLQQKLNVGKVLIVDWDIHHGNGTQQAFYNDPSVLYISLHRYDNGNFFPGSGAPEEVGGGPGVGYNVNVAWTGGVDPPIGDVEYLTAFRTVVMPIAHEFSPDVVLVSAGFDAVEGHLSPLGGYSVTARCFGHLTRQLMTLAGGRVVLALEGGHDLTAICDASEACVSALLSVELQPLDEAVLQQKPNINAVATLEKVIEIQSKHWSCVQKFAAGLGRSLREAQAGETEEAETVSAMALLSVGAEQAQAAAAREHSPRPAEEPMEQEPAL
Chain of HDAC8 (Q9BY41 whole entry): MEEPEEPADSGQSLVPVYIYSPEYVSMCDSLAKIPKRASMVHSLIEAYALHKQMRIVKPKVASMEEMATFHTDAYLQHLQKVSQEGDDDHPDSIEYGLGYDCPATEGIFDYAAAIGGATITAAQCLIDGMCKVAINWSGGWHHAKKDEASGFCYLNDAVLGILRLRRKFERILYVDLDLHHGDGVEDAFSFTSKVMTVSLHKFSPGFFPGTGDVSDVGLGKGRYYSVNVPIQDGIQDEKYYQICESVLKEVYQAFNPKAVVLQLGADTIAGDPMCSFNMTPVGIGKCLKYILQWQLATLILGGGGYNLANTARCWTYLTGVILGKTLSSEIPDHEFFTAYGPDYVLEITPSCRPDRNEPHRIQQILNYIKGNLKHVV

For the compound `Cn1c(N)nc2cc(-c3cn(Cc4ccc(-c5nnc(C(F)F)o5)cn4)nn3)ccc21` [Compd. 17, 5-(1-((5-(5-(difluoromethyl)-1,3,4-oxadiazol-2-yl)pyridin-2-yl)methyl)-1H-1,2,3-triazol-4-yl)-1-methyl-1H-benzo[d]imidazol-2-amine], the “residual percentage in RAT PLASMA” value in [1] turned out to be 85%. The pIC50 in [2] is less than 4.52; in series [3], less than 4.52; in series [4], less than 4.52; in series [5] it was less than 3.70; in series [8], less than 4.52; in series [10] it was less than 4.52. In addition, the pIC50 in series [11] is less than 4.52; in series [12] it was 8.10; in series [13] it was less than 4.52; in [14] it was less than 4.52; in series [16], less than 3.70. The “residual percentage in RAT S9 FRACTION” value in [6] came to 99%. The “residual percentage in HUMAN PLASMA” value in series [7] turned out to be 82%. Further, the “residual percentage in HUMAN S9 FRACTION” value in [9] is given as 84%. Besides, the fold induction at 1 µM in series [15] was 32.

On to `Nc1nc2cc(-c3nnn(Cc4ccc(-c5nnc(C(F)F)o5)cn4)n3)ccc2o1` [compound 7, 5-(2-((5-(5-(difluoromethyl)-1,3,4-oxadiazol-2-yl)pyridin-2-yl)methyl)-2H-tetrazol-5-yl)benzo[d]oxazol-2-amine], for which the “residual percentage in RAT PLASMA” value in series [1] stood at 81%. Besides, the pIC50 is less than 4.52 in [2]; less than 4.52 in series [3]; less than 4.52 in series [4]; less than 3.70 in series [5]; less than 4.52 in [8]; less than 4.52 in [10]. In addition, the pIC50 is less than 4.52 in [11]; 7.89 in series [12]; less than 4.52 in series [13]; less than 4.52 in [14]; less than 3.70 in series [16]. For the same compound, the “residual percentage in RAT S9 FRACTION” value in series [6] is given as 96%. Besides, the “residual percentage in HUMAN PLASMA” value in series [7] is recorded as 76%. The “residual percentage in HUMAN S9 FRACTION” value in series [9] was 92%. The fold induction at 1 µM in series [15] amounted to 16.

In the case of `O=C(Nc1cccc(-c2cn(Cc3ccc(-c4nnc(C(F)F)o4)cn3)nn2)c1)N1CCOCC1` [compound 6, N-(3-(1-((5-(5-(difluoromethyl)-1,3,4-oxadiazol-2-yl)pyridin-2-yl)methyl)-1H-1,2,3-triazol-4-yl)phenyl)morpholine-4-carboxamide], the “residual percentage in RAT PLASMA” value in series [1] is recorded as 93%. The pIC50 in series [2] was less than 4.52; in series [3] it was less than 4.52; in series [4], less than 4.52; in series [5] it was less than 3.70; in series [8] it was less than 4.52; in series [10], less than 4.52. The pIC50 is less than 4.52 in [11]; 7.89 in series [12]; less than 4.52 in [13]; less than 4.52 in series [14]; less than 3.70 in [16]. Moreover, the “residual percentage in RAT S9 FRACTION” value in series [6] was 93%. Moreover, in [7], the “residual percentage in HUMAN PLASMA” value is recorded as 93%. Moreover, in [9], the “residual percentage in HUMAN S9 FRACTION” value was 99%. In addition, the fold induction at 1 µM in [15] was 19.

In the case of `Cn1c(N)nc2cc(-c3cn(Cc4ccc(-c5nnc(C(F)F)o5)cc4)nn3)ccc21` [Compd. 23, 5-(1-(4-(5-(difluoromethyl)-1,3,4-oxadiazol-2-yl)benzyl)-1H-1,2,3-triazol-4-yl)-1-methyl-1H-benzo[d]imidazol-2-amine], the “residual percentage in RAT PLASMA” value in series [1] is on record as 92%. The pIC50 in series [2] was less than 4.52; in series [3] it was less than 4.52; in [4] it was less than 4.52; in [5], 4.52; in [8], less than 4.52; in series [10] it was less than 4.52. The pIC50 in series [11] was 4.58; in series [12], 7.89; in series [13] it was less than 4.52; in [14], less than 4.52; in [16], 6.25. Also, in [6], the “residual percentage in RAT S9 FRACTION” value was found to be 96%. In addition, the “residual percentage in HUMAN PLASMA” value in [7] was 88%. Further, the “residual percentage in HUMAN S9 FRACTION” value in series [9] is 88%. Moreover, the fold induction at 1 µM in [15] amounted to 31.

In the case of `CCNc1nc2ccc(-c3cn(Cc4ccc(-c5nnc(C(F)F)o5)cn4)nn3)cc2[nH]1` [compound 18, 5-(1-((5-(5-(difluoromethyl)-1,3,4-oxadiazol-2-yl)pyridin-2-yl)methyl)-1H-1,2,3-triazol-4-yl)-N-ethyl-1H-benzo[d]imidazol-2-amine], in [1], the “residual percentage in RAT PLASMA” value turned out to be 69%. For the same compound, the pIC50 was less than 4.52 in series [2]; less than 4.52 in [3]; less than 4.52 in [4]; less than 3.70 in series [5]; less than 4.52 in series [8]; less than 4.52 in series [10]. In addition, the pIC50 in series [11] was less than 4.52; in series [12], 8.10; in [13] it was less than 4.52; in [14], less than 4.52; in series [16], less than 3.70. For the same compound, the “residual percentage in RAT S9 FRACTION” value in series [6] came to 91%. In addition, the “residual percentage in HUMAN PLASMA” value in series [7] came to 84%. The “residual percentage in HUMAN S9 FRACTION” value in series [9] is reported as 82%. The fold induction at 1 µM in series [15] turned out to be 11.

As to `Cn1c(N)nc2cc(-c3nnn(Cc4ccc(-c5nnc(C(F)F)o5)cc4)n3)ccc21` [compound 11, 5-(2-(4-(5-(difluoromethyl)-1,3,4-oxadiazol-2-yl)benzyl)-2H-tetrazol-5-yl)-1-methyl-1H-benzo[d]imidazol-2-amine], in [1], the “residual percentage in RAT PLASMA” value was 86%. For the same compound, the pIC50 is less than 4.52 in series [2]; less than 4.52 in series [3]; less than 4.52 in series [4]; less than 3.70 in [5]; less than 4.52 in series [8]; less than 4.52 in series [10]. The pIC50 was less than 4.52 in series [11]; 7.72 in series [12]; less than 4.52 in series [13]; less than 4.52 in series [14]; less than 3.70 in series [16]. Moreover, the “residual percentage in RAT S9 FRACTION” value in [6] came to 90%. Also, the “residual percentage in HUMAN PLASMA” value in [7] is on record as 83%. Besides, in series [9], the “residual percentage in HUMAN S9 FRACTION” value came out at 70%. Moreover, the fold induction at 1 µM in series [15] was found to be 18.

Turning to `Nc1ccc(-c2cnn(Cc3ccc(-c4nnc(C(F)F)o4)cn3)c2)cn1` [compound 13, 5-(1-((5-(5-(difluoromethyl)-1,3,4-oxadiazol-2-yl)pyridin-2-yl)methyl)-1H-pyrazol-4-yl)pyridin-2-amine], the “residual percentage in RAT PLASMA” value in [1] is on record as 75%. In addition, the pIC50 was less than 4.52 in series [2]; less than 4.52 in series [3]; less than 4.52 in series [4]; less than 3.70 in series [5]; less than 4.52 in [8]; less than 4.52 in [10]. Besides, the pIC50 in series [11] is less than 4.52; in [12], 7.64; in series [13], less than 4.52; in [14] it was less than 4.52; in series [16], 3.71. The “residual percentage in RAT S9 FRACTION” value in series [6] was 98%. For the same compound, the “residual percentage in HUMAN PLASMA” value in [7] worked out at 78%. For the same compound, in series [9], the “residual percentage in HUMAN S9 FRACTION” value stood at 97%. Also, the fold induction at 1 µM in series [15] is 16.

By pIC50 is commonly meant −log10 of the IC50, conventionally taken in molar units.
